Results taken from US4169096A, “Antibiotic compounds” (priority 1977, dated 1979).
≈ marks a conversion by molar mass, not a printed value. Where two headings read alike, the source gives them in different places.

What was measured:
[1] = system: Escherichia coli Juhl A15119; test: MIC, serial two-fold agar dilution, aerobic bacteria; format: cell-based; details: JUHLA15119
[2] = system: Pseudomonas aeruginosa A9843; test: as above; format: cell-based; details: test medium not given
Proteus mirabilis A9554 = test: as above; format: cell-based; details: Nutrient agar (Eiken)
Proteus morganii A9553 = test: as above; format: cell-based; details: Morganella morganii, Nutrient agar (Eiken)
[3] = system: Staphylococcus aureus 209P; test: as above; format: cell-based; details: Nutrient agar (Eiken)
Sarcina lutea PCI-1001 = test: as above; format: cell-based; details: Micrococcus luteus, PCI1001; Nutrient agar (Eiken); read-out: MIC
Micrococcus flavus = test: as above; format: cell-based
[4] = system: Bacillus cereus ATCC 10702 A; test: as above; format: cell-based; details: ATCC10702
[5] = system: Streptococcus pyogenes A9604; test: as above; format: cell-based; details: GC medium (Eiken)
[6] = system: Streptococcus pyogenes A20201; test: as above; format: cell-based; details: GC medium (Eiken)
[7] = system: Streptococcus viridans A21354; test: as above; format: cell-based; details: GC medium (Eiken)
[8] = system: Neisseria meningitidis A21496; test: as above; format: cell-based; details: GC medium (Eiken)
[9] = system: Neisseria gonorrhoeae A20154; test: as above; format: cell-based; details: GC medium (Eiken)
[10] = system: Hemophilus influenzae A9832; test: as above; format: cell-based; details: Haemophilus influenzae, GC medium (Eiken)
C. perfringens A9635 [11] = test: microbe, parasite or virus in culture; format: cell-based, Clostridium perfringens
B. fragilis A20928-1 [12] = test: Inoculum size effect on MIC, GAM broth; format: cell-based; details: Bacteroides fragilis
C. perfringens A9635 [13] = test: microbe, parasite or virus in culture; format: cell-based; details: Clostridium perfringens
B. fragilis A20928-1 [14] = test: Bactericidal activity (MIC & MBC); format: cell-based; details: Bacteroides fragilis, A209281, inoculum size 2.8 × 10^6 cell/ml
C. perfringens A9635 [15] = test: microbe, parasite or virus in culture; format: cell-based; details: Clostridium perfringens; remark: listed apart in the source
S. pyogenes A20201 [16] = test: Bactericidal activity (MIC & MBC); format: cell-based; details: Streptococcus pyogenes, A20201, 18 h
S. pyogenes A20201 [17] = test: Systemic infection with S. pyogenes in mice; format: in vivo; details: just before challenge, determined after 5 days
Solubility = format: physicochemical
Stability in solution = format: physicochemical
[18] = pKa' by titration in aqueous ethanol; format: physicochemical; details: 50% aqueous ethanol
aerobic organisms = test: Antibacterial activity against aerobic bacteria (in words); format: cell-based; details: Bacillus species, streptococci, Neisseria meningtidis, N. gonorrhoeae, Hemophilus influenzae
[19] = system: aerobic and anaerobic bacteria; test: Antibacterial activity and spectrum (in words); format: cell-based
[20] = system: two anaerobic organisms (B. fragilis and C. perfringens); format: cell-based; details: broth dilution method
[21] = system: two anaerobic and one aerobic organisms; test: Bactericidal potential (in words); format: cell-based
[22] = system: C. perfringens or S. pyrogenes; format: in vivo, mice; details: oral
[23] = system: Bacteroides fragilis A20929; test: microbe, parasite or virus in culture
[24] = system: Bacteroides fragilis A20930; test: microbe, parasite or virus in culture
[25] = system: Bacteroides fragilis A20932; test: microbe, parasite or virus in culture
[26] = system: Bacteroides fragilis A20935; test: microbe, parasite or virus in culture
[27] = system: Sphaerophorus necrophorus A15202; test: microbe, parasite or virus in culture; details: Fusobacterium necrophorum
[28] = system: Sphaerophorus pseudonecrophorus A20013; test: microbe, parasite or virus in culture; details: Fusobacterium necrophorum
[29] = system: Fusobacterium mortiferum ATCC 9817; test: microbe, parasite or virus in culture; details: ATCC9817
[30] = system: Fusobacterium varium ATCC 8501; test: microbe, parasite or virus in culture; details: ATCC8501
[31] = system: Acidoaminococcus fermentans ATCC 25085; test: microbe, parasite or virus in culture
[32] = system: Peptocuccus prevotii ATCC 9321; test: microbe, parasite or virus in culture
[33] = system: Peptococcus aerogenes ATCC 14963; test: microbe, parasite or virus in culture; details: Peptoniphilus asaccharolyticus, ATCC14963

COC(=O)C1C(C)OC2(C)CC(=O)C3OC12OC(C(C)/C=C(C)/C=C/C(=O)C1=C(O)CN(C)C1=O)C3C (centres unmarked) [Bu-2313A] gave an MIC [1] greater than 100 µg/mL, an MIC [2] greater than 100 µg/mL and an MIC (Proteus mirabilis A9554) greater than 100 µg/mL. It also gave an MIC (Proteus morganii A9553) greater than 100 µg/mL, an MIC [3] of 25 µg/mL (≈ 48.3 µM) and an MIC (Sarcina lutea PCI-1001) of 25 µg/mL (≈ 48.3 µM). It also gave an MIC (Micrococcus flavus) of 6.3 µg/mL (≈ 12.2 µM), an MIC [4] of 0.8 µg/mL (≈ 1.55 µM) and an MIC [5] of 0.8 µg/mL (≈ 1.55 µM). For the same compound, the MIC [6] was 0.8 µg/mL (≈ 1.55 µM), the MIC [7] was 0.8 µg/mL (≈ 1.55 µM) and the MIC [8] was 3.1 µg/mL (≈ 5.99 µM). The MIC [9] was 0.8 µg/mL (≈ 1.55 µM), the MIC [10] was 0.8 µg/mL (≈ 1.55 µM) and the MIC (C. perfringens A9635 [11]; Clostridium perfringens, A9635, read-out: MIC in GAM agar) was 0.1 µg/mL (≈ 0.193 µM). For the same compound, the “MIC in GAM agar” value (C. perfringens A9635 [11]; inoculum size 7 × 10^6 cell/ml) was 0.1 µg/mL (≈ 0.193 µM), the MIC (B. fragilis A20928-1 [12]; A209281, inoculum size […] 10^7 cell/ml, read-out: MIC in GAM broth) was 0.8 µg/mL (≈ 1.55 µM) and the MIC (B. fragilis A20928-1 [12]; A209281, read-out: MIC in GAM broth, inoculum size […] 10^6 cell/ml) was 0.06 µg/mL (≈ 0.116 µM). The MIC (C. perfringens A9635 [13]; A9635, read-out: MIC in GAM broth, inoculum size […] 10^5 cell/ml) was 0.1 µg/mL (≈ 0.193 µM), the MIC (C. perfringens A9635 [13]; A9635, read-out: MIC in GAM broth, inoculum size […] 10^6 cell/ml) was 100 µg/mL (≈ 193 µM) and the MIC (B. fragilis A20928-1 [14]; broth) was 0.03 µg/mL (≈ 0.058 µM). The MBC (B. fragilis A20928-1 [14]; growth of less than 100 colonies per plate, 18 hours at 37° C.) was greater than 0.8 µg/mL, the MIC (C. perfringens A9635 [15]; A9635) was 0.1 µg/mL (≈ 0.193 µM) and the MBC (C. perfringens A9635 [15]; A9635, 18 h) was 12.5 µg/mL (≈ 24.2 µM). For the same compound, the MBC (S. pyogenes A20201 [16]) was 12.5 µg/mL (≈ 24.2 µM), the ED50 (S. pyogenes A20201 [17]; Streptococcus pyogenes, A20201, 120 h, sc, read-out: PD50) was 7.6 mg/kg and the PD50 (S. pyogenes A20201 [17]; po, NA: no activity) was “NA at 25”. For the same compound, the solubility (Solubility; hexane and alkaline water) was “slightly soluble”, the solubility (Solubility; most organic solvents such as lower alcohols, ethyl acetate, chloroform and benzene) was “readily soluble” and the solubility (Solubility; water) was “practically insoluble”. The stability (Stability in solution; acidic solution) was “stable”, the stability (Stability in solution; alkaline solution, N/10 NaOH, room temperature, overnight) was “inactivated” and the pKa [18] was 5.2. For the same compound, the “susceptibility of aerobic strains” value (aerobic organisms) was “susceptible”, the antibacterial activity [19] was “exhibit antibacterial activity against a variety of anaerobic bacteria and some aerobic bacteria” and the “comparative activity and antibacterial spectrum” value ([19]; in vitro) was “very similar to those of tirandamycin”. For the same compound, the “influence of inoculum size on MIC” value [20] was “greatly affected by inoculum size”, the antibacterial action [21] was “bacteriostatic rather than bactericidal” and the “activity by the oral route” value [22] was “inactive by the oral route”. It also gave an MIC [23] of 0.2 µg/mL (≈ 0.386 µM), an MIC [24] of 0.2 µg/mL (≈ 0.386 µM) and an MIC [25] of 0.2 µg/mL (≈ 0.386 µM). The MIC [26] was 0.2 µg/mL (≈ 0.386 µM), the MIC [27] was 0.2 µg/mL (≈ 0.386 µM) and the MIC [28] was 0.2 µg/mL (≈ 0.386 µM). The MIC [29] was 0.2 µg/mL (≈ 0.386 µM), the MIC [30] was 0.1 µg/mL (≈ 0.193 µM) and the MIC [31] was 0.2 µg/mL (≈ 0.386 µM). It also gave an MIC [32] of 0.2 µg/mL (≈ 0.386 µM) and an MIC [33] of 0.2 µg/mL (≈ 0.386 µM).
